Experiment [1] has as its target T1, Mitogen-activated protein kinase 14 (Homo sapiens, UniProt Q16539). The experiment in a line: Binding affinity to unphosphorylated p38alpha assessed as change in melting temperature.
Experiment [2] addresses T1, Mitogen-activated protein kinase 14. Description: Binding affinity to phosphorylated p38alpha by fluoroprobe binding assay.
Experiment [3] has the same target. The experiment in a line: Binding affinity to phosphorylated p38alpha assessed as change in melting temperature.
The target is the same in experiment [4]. Description: Binding affinity to unphosphorylated p38alpha by fluoroprobe binding assay.
Experiment [5] shares this target. Description: Inhibition of p38alpha by fluoroprobe binding assay.
Experiment [6] has the same target. The experiment in a line: Inhibition of p38alpha autophosphorylation.
The target in experiment [7] is T2, Ephrin type-B receptor 2 (Homo sapiens, UniProt P29323).
T2 sequence (P29323 whole entry): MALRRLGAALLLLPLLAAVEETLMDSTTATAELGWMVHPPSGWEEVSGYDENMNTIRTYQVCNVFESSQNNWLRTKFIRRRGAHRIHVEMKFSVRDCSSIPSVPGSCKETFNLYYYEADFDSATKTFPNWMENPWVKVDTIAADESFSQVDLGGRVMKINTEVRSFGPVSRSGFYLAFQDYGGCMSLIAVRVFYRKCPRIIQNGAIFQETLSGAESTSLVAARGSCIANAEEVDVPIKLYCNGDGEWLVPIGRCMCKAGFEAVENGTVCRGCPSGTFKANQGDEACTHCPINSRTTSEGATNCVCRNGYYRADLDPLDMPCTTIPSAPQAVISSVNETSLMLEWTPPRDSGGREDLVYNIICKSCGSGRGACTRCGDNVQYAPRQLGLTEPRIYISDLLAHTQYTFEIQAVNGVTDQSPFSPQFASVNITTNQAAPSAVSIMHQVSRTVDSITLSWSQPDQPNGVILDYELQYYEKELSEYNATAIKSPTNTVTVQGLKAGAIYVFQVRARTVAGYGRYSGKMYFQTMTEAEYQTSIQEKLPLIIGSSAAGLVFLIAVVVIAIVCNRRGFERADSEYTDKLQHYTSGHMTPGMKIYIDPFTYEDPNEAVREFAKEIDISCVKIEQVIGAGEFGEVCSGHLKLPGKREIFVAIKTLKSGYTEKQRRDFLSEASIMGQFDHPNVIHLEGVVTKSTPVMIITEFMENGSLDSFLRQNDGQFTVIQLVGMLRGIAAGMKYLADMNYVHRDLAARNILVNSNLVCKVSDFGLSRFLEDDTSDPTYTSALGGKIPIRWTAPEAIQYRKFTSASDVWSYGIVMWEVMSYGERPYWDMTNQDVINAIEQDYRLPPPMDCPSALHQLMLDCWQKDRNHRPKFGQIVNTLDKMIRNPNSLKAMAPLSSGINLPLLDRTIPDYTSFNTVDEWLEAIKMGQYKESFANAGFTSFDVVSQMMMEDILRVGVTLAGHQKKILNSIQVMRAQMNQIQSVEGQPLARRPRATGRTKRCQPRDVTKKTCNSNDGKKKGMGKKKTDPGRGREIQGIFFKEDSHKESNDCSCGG
The experiment in a line: Inhibition of EPHB2.

Experiment [8] concerns the target Serine/threonine-protein kinase B-raf (Homo sapiens, UniProt P15056). The experiment in a line: Inhibition of BRAF.

Results on nine compounds are retold here after ChEMBL document CHEMBL1268872 (Bioorg Med Chem Lett, 2010).

T1 sequence (Q16539 whole entry): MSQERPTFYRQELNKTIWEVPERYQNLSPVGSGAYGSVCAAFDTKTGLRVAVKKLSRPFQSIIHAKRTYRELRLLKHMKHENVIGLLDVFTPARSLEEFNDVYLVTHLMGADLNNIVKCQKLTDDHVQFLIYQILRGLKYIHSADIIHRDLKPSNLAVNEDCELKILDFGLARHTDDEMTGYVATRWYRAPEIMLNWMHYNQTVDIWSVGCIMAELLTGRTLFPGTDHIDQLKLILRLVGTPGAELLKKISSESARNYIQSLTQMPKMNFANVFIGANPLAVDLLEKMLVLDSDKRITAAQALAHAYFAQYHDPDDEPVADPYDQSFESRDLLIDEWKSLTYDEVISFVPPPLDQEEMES
Sequence of Serine/threonine-protein kinase B-raf (P15056 whole entry): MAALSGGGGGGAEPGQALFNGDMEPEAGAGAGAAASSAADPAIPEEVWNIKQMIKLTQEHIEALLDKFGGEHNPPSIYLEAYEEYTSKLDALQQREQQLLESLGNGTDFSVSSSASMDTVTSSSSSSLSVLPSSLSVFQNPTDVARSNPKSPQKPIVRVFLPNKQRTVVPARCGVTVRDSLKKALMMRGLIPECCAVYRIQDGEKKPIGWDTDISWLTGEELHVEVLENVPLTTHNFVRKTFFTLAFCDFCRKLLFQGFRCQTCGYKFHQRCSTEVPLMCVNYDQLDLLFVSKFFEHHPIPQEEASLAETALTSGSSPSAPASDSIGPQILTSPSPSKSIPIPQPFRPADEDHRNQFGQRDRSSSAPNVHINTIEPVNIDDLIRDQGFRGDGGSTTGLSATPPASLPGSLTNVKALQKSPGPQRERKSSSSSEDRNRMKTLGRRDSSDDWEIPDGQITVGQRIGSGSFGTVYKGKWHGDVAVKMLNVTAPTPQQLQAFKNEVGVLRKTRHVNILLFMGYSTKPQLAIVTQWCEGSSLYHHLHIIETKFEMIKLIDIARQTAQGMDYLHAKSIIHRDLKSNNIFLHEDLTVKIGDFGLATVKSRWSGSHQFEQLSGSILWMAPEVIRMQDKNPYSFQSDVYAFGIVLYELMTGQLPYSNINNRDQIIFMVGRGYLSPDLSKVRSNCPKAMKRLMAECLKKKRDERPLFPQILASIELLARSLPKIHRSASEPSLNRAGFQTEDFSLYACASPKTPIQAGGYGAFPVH

In the case of `NC(=O)Cc1cccc(-n2nc(-c3ccsc3)cc2NC(=O)Nc2cccc(Cl)c2Cl)c1`, the ΔTm (in general, the shift of the melting midpoint relative to a reference) was 11.6 °C in experiment [1] and 9.3 °C in experiment [3]. The values for the IC50 in experiment [2] and in experiment [4] were 0.028 µM and 0.015 µM, respectively.
As for `NC(=O)Cc1cccc(-n2nc(C3CCCC3)cc2NC(=O)Nc2cccc(Cl)c2Cl)c1`, the shift in melting temperature (ΔTm) in experiment [1] came to 12.2 °C. Besides, in experiment [2], the IC50 – broadly, the midpoint of a concentration-inhibition curve – stood at 0.01 µM.
`CC(C)(C)c1cc(NC(=O)Nc2cccc3ccccc23)n(-c2cccc(CC(N)=O)c2)n1`: the thermal shift (ΔTm) in experiment [1] amounted to 9.1 °C; in experiment [3], 8.6 °C.
Consider `NC(=O)Cc1cccc(-n2nc(-c3ccccc3F)cc2NC(=O)Nc2cccc(Cl)c2Cl)c1`, for which the shift in melting temperature (ΔTm) is 8.8 °C in experiment [1] and 7.1 °C in experiment [3]. Besides, the half-inhibitory concentration (IC50) in experiment [2] is 0.04 µM; in experiment [4], 0.025 µM.
In experiment [5], `CC(C)(C)c1cc(NC(=O)Nc2cccc(Cl)c2Cl)n(-c2ccc(CC(=O)N3CCS(=O)(=O)CC3)cc2)n1` showed a concentration for half-maximal inhibition (IC50) of 0.007 µM.
For the compound `NC(=O)Cc1cccc(-n2nc(-c3cccs3)cc2NC(=O)Nc2cccc(Cl)c2Cl)c1`, the thermal shift (ΔTm) was determined as 11.2 °C in experiment [1] and 8.5 °C in experiment [3]. The IC50 in experiment [2] was 0.066 µM; in experiment [6], over 5 µM; in experiment [7] it was over 50 µM.
Consider `CC(C)(C)c1cc(NC(=O)Nc2cccc(Cl)c2Cl)n(-c2cccc(CC(N)=O)c2)n1`, for which the IC50 was 0.017 µM in experiment [8] and 0.082 µM in experiment [7]. Further, the values for the ΔTm in experiment [1] and in experiment [3] were 12.8 °C and 9.1 °C, respectively.
For the compound `CC(C)(C)c1cc(NC(=O)Nc2cccc3ccccc23)n(-c2cccc(C(=O)N3C(=O)OC[C@@H]3c3ccccc3)c2)n1`, in experiment [5], the concentration for half-maximal inhibition (IC50) was over 10 µM.
Consider `NC(=O)Cc1cccc(-n2nc(-c3ccccc3)cc2NC(=O)Nc2cccc(Cl)c2Cl)c1`, for which the ΔTm in experiment [1] was 8 °C; in experiment [3], 5.4 °C. The half-maximal inhibitory concentration (IC50) in experiment [2] was found to be 0.079 µM; in experiment [4], 0.119 µM.
